From patent US7223779B2, “Azasugar derivative and drug containing the same as the active ingredient” (Carna Biosciences Inc., priority 2002, dated 2007)

Tests used:
[1] = test system: epidermal hyperplasia in mice induced by the application of TPA; assay: TPA-induced epidermal hyperplasia in mouse dorsal skin; format: in vivo; settings: male BALB/c mice; applied to skin 5 min, 24 h and 48 h after TPA; doses 1, 10, 100 μg; skin excised at 72 h; FIG. 1
Description: After backs of male BALB/c mice were shaved, 10 μL of a TPA-acetone solution (0.1 mM) was applied to the dorsal skin surface in an area of about 1 cm^2. In the medicine-treated group, a volume of 20 μL of a solution prepared by dissolving the test compound in acetone was applied to the same area 5 minutes, 24 hours and 48 hours after TPA application. In the non-treated group, only TPA was applied. In the control group, acetone was applied instead of the TPA-acetone solution.
The mice were sacrificed and the skin tissues were excised 72 hours after TPA application. Then the tissues were fixed with formalin, the vertical sections including the center of the TPA- or acetone-treated area were prepared and embedded in paraffin according to the conventional method. And they were stained by hematoxylin-eosin after removing paraffin. The epidermal thickness was measured using a microscope.
In FIG. 1, the numeral in the ordinate represents the epidermal thickness (μm). A bar graph of TPA (−) represents the epidermal thickness of the control group and a bar graph of TPA represents the epidermal thickness of the non-treated group. The respective bar graphs of 1, 10 and 100 denote the epidermal thickness of the group wherein the test compound is administered at a dose of 1, 10 and 100 (μg/wound) of each test compound. […]

[2] = test system: re-epithelialization of keratinocytes, mouse skin wound model; assay: Mouse skin wound healing model, re-epithelialization of keratinocytes; format: in vivo; settings: male BALB/c mice; 6 mm full-thickness wounds; applied once a day; assessed eight days after operation; FIG. 2
Description: Wound healing model was prepared in accordance with the method described by Tsuboi, et al. (J. Dermatol., 19, 673–675 (1992)). After backs of male BALB/c mice were shaved, two full-thickness round wounds (6 mm diameter) were prepared on the back of each mouse using a punch biopsy instrument. In medicine-treated group, immediately after the operation, a test compound suspended in 0.01M phosphate-buffered saline containing 1.5% sodium carboxymethyl cellulose (vehicle) was applied to each wound in a volume of 50 μL/wound. From the following day, the compound was repeatedly applied to each wound once a day for 7 days. In the control group, vehicle solution only was applied in the same manner. Eight days after the operation, mice were sacrificed and skin tissues containing wound area were removed. The tissues were fixed with a 10% neutral buffer formalin solution for one day and embedded in paraffin according to the conventional method. The cross-sections were made perpendicularly to the anterior-posterior axis. Keratinocytes in the specimen were stained by immuno histochemical staining method with an anti-keratin antibody after removing paraffin. Measurements of wound size (mm) and re-epithelialization of keratinocytes (mm) were performed by using an image-analyzing software. Re-epithelialization rate(%) of keratinocytes was calculated as follows with regard to each animal. […]

For `O=C(NO)[C@H]1[C@@H](O)[C@H](O)[C@@H](O)CN1S(=O)(=O)c1ccc(Oc2ccccc2)cc1` [Compound c, (2R,3R,4R,5S)-3,4,5-trihydroxy-1-(4′-phenoxybenzenesulfonyl)-piperidine-2-carboxylic Acid Hydroxamide], the “hyperplasia inhibitory activity (epidermal thickness)” value [1] was “hyperplasia inhibitory activity” and the “re-epithelialization rate (%) of keratinocytes inhibitory activity” value [2] was “inhibitory activity”.
